According to patent US12350259B2, “Methods of treating migraine” (Allergan Pharmaceuticals International Limited, priority 2021, dated 2025):

Columns and labels:
Assay type in all cases: in vitro ADME
Details in all cases: clinically relevant concentrations
P-gp = P-gp (Homo sapiens, UniProt P08183); assay: Transporter inhibition
CYP1A2 = CYP1A2 (Homo sapiens, UniProt P05177); assay: In vitro CYP inhibition
MRP3 = MRP3 (Homo sapiens, UniProt O15438); assay: Transporter inhibition
MRP3, sequence (O15438 whole entry): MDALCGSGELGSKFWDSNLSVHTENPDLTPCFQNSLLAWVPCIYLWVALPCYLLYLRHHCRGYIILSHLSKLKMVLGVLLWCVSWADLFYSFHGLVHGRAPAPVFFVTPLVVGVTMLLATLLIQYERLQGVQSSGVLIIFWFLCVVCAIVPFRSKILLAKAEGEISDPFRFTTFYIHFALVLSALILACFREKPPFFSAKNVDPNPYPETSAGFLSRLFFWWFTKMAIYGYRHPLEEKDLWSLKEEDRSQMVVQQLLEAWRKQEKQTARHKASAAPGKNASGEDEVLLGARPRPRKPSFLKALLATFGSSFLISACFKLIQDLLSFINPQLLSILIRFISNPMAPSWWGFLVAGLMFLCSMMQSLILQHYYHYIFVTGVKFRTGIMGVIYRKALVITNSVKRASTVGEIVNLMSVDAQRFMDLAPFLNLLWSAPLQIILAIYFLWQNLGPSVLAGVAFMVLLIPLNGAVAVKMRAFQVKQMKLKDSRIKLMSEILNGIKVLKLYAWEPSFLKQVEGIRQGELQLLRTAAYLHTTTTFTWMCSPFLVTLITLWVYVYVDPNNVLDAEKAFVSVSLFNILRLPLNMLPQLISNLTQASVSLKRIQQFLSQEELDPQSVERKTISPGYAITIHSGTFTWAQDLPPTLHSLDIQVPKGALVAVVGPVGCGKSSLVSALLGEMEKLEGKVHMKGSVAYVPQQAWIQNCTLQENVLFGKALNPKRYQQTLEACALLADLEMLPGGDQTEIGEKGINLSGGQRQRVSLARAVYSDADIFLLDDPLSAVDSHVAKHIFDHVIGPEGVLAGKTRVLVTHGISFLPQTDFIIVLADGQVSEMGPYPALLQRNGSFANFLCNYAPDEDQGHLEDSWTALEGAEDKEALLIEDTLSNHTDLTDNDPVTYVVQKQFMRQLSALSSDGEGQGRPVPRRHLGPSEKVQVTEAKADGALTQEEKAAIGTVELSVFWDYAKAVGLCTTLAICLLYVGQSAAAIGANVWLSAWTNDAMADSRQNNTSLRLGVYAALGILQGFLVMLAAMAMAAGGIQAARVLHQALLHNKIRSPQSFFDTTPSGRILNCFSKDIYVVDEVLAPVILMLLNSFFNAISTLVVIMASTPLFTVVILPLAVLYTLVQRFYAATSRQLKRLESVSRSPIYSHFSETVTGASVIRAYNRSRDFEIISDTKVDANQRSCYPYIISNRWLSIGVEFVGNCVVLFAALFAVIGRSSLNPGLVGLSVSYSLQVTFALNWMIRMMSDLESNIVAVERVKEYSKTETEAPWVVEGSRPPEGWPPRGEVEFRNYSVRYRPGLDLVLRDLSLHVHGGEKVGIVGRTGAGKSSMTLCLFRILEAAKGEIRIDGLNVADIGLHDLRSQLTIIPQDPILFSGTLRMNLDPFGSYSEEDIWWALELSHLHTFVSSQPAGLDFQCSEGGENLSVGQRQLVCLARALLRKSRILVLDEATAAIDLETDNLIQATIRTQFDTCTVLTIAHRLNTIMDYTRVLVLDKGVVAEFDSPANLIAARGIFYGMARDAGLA

CYP1A2, sequence (P05177 whole entry): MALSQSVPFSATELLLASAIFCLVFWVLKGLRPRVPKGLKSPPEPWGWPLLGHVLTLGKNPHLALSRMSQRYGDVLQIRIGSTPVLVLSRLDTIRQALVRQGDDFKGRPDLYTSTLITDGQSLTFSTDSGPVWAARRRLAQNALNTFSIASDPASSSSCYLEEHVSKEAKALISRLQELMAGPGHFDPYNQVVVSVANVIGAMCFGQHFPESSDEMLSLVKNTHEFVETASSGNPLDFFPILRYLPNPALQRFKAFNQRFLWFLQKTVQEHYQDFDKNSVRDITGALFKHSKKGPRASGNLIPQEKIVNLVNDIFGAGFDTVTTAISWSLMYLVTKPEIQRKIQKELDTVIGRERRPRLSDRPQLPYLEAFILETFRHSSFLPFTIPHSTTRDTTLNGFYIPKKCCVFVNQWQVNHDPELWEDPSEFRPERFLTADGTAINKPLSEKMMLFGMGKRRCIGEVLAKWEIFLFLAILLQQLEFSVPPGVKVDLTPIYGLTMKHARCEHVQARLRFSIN
P-gp, sequence (P08183 whole entry): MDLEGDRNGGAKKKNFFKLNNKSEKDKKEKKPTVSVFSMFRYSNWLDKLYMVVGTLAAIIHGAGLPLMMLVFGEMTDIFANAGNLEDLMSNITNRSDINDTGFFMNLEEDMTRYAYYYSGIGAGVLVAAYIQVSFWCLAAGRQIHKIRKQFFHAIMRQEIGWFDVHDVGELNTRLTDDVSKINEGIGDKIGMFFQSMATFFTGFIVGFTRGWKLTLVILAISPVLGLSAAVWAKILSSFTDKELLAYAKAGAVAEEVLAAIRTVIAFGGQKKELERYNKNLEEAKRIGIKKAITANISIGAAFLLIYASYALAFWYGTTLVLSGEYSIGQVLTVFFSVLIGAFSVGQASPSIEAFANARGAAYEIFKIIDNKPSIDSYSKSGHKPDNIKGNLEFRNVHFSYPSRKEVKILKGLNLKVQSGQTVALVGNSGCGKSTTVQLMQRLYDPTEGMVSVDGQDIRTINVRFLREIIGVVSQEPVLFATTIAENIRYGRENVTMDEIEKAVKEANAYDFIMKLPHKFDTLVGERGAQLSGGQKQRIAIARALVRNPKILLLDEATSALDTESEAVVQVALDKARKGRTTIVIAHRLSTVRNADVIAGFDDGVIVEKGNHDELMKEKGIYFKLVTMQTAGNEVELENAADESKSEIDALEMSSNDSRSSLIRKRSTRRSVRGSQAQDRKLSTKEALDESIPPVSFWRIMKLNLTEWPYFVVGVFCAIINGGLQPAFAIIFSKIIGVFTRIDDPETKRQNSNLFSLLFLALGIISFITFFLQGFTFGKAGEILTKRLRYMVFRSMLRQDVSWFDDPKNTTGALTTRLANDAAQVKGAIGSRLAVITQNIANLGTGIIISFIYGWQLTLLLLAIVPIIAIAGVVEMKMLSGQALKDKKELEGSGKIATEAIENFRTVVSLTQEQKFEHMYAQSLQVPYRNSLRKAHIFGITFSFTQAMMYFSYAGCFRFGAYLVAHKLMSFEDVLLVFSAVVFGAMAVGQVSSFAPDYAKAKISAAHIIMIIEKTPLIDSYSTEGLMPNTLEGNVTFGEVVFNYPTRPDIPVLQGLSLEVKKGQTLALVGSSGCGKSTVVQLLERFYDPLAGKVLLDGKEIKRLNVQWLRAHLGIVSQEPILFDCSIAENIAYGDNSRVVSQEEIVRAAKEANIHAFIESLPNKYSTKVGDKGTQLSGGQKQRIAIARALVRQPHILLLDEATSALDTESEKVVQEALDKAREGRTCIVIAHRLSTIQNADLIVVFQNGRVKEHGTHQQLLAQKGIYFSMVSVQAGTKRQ

C[C@@H]1[C@H](c2c(F)ccc(F)c2F)C[C@H](NC(=O)c2cnc3c(c2)C[C@@]2(C3)C(=O)Nc3ncccc32)C(=O)N1CC(F)(F)F [atogepant, (3′S)-N-[(3S,5S,6R)-6-methyl-2-oxo-1-(2,2,2-trifluoroethyl)-5-(2,3,6-trifluorophenyl)piperidin-3-yl]-2′-oxo-1′,2′,5,7-tetrahydrospiro[cyclopenta[b]pyridine-6,3′-pyrrolo[2,3-b]pyridine]-3-carboxamide]
not an inhibitor: inhibition of P-gp (P-gp) | inhibition of CYP1A2 (CYP1A2) | inhibition of MRP3 (MRP3)
